Measurements as given in US12502434B2, “Compound comprising EZH2 inhibitor and E3 ligase binder and pharmaceutical composition for preventing or treating EZH2-associated disease comprising same as active ingredient” (DAEGU-GYEONGBUK MEDICAL INNOVATION FOUNDATION, priority 2019, dated 2025).
Where two headings read alike, the source gives them in different places.

How the values were obtained:
[1] = biological target: T1, HiBiT-EZH2 in EZH2-HiBiT HEK293T cells (Homo sapiens, UniProt Q15910); experiment: EZH2 proteolytic activity using Nano-BiT assay system; type: cell-based; conditions: for EZH2 proteolytic ability compared to comparative compounds 1, 2 and 3 (in words): 1 μM; for Relative EZH2 degradation rate, 1 μM(%) Average: 72 hours, n = 3
T1 construct: endogenous in cells; host or cells: HEK293T (CRISPR/Cas9 HiBiT knock-in at the EZH2 locus)
T1 sequence (Q15910 whole entry): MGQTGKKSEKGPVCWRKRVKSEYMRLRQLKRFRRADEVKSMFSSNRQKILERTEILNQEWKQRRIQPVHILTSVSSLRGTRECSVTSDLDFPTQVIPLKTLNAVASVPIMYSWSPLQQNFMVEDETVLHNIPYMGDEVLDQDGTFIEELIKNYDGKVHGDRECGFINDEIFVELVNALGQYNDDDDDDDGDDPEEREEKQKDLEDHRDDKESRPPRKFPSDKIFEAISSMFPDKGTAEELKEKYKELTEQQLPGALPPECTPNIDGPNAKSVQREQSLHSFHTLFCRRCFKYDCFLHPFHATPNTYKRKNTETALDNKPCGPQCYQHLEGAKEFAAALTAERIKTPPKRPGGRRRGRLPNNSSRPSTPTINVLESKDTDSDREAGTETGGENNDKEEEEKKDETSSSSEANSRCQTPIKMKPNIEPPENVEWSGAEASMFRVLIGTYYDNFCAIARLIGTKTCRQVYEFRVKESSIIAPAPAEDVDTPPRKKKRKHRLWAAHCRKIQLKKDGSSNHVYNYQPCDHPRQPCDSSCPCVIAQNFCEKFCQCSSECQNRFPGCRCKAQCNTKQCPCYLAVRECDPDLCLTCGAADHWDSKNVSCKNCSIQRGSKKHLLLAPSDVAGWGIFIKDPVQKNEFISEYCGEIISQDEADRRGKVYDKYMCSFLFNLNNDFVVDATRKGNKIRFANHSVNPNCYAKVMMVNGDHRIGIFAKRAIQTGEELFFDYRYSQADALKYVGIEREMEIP
T1 sequence (O75530 whole entry partner): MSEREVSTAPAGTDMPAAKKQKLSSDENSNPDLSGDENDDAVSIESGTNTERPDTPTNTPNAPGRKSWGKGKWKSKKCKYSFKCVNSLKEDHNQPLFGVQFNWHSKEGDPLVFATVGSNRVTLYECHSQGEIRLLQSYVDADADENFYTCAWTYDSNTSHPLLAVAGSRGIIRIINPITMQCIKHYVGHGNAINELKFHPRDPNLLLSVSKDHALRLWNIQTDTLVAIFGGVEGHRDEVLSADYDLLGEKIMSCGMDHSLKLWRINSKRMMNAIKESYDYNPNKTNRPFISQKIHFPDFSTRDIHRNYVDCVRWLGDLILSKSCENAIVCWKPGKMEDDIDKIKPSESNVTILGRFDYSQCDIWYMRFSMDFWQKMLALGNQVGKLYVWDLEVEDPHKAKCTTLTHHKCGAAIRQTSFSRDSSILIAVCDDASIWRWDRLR
T1 sequence (Q15022 whole entry partner): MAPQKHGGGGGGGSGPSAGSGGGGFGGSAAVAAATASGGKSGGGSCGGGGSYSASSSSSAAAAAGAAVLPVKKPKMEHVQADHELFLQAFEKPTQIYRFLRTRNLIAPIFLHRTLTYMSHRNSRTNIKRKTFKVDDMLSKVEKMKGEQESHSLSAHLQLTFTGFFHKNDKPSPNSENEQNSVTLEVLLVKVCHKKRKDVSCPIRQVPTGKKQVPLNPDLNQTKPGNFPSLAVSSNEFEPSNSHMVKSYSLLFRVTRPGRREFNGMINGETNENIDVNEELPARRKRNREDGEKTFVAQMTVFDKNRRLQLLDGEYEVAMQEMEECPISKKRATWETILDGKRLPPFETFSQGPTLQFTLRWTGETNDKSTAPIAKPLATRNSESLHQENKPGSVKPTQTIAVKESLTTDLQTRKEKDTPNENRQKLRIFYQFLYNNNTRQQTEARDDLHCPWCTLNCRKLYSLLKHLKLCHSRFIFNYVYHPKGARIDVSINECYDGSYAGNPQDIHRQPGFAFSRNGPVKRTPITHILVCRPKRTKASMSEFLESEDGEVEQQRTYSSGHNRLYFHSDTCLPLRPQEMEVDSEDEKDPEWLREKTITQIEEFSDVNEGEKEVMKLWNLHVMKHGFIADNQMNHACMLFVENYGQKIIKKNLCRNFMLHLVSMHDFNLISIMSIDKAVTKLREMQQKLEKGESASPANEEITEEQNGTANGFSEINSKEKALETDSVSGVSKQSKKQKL
Method: In order to evaluate the EZH2 proteolytic activity of the compound according to the present invention, the following experiment was performed. Specifically, the CRISPR/Cas9 technique was used to construct a stable cell line of HiBiT-EZH2. […] After harvesting the cells, the cell solution was prepared at a concentration of 1 cell/100 ul, and 100 ul of the cell solution was dispensed into each well of a 96-well plate and seeded so that a single cell could proliferate in each well. After proliferating the cells for 2-3 weeks, some of the proliferated cells from one cell were recovered and gDNA was extracted. To confirm that the HiBiT sequence was correctly inserted into the EZH2 target, deep sequencing was performed to select the cells containing the HiBiT sequence, and after further verification through Sanger sequencing, the final EZH2-HiBiT HEK293T cells were obtained. 1×10^3 of the obtained cells were placed in a 96-well white plate, and after 18 hours of stabilization, each well was treated with the example compound at a final concentration of 1 μM. The control group was treated with the same concentration of DMSO which was used as the solvent of the example compound. After 72 hours of the treatment, an assay was performed using Nano-Glo HiBiT Lytic Detection System ([…], Promega). After removing the medium, 100 μL of lysis buffer, 1 μL of LgBiT protein and 1 μL of substrate buffer were added to each well. Then, the plate was reacted in a shaking incubator at 700 rpm for 2 minutes, and then the mixture of each well was pipetted to mix well. Thereafter, the plate was reacted at room temperature for 10 minutes while light was blocked, and luminescence was measured.

[2] = biological target: T2, EZH2 protein in LS174T cells (Homo sapiens, UniProt Q15910); experiment: Proteolytic effect in colorectal cancer cells (Western blotting); type: cell-based
T2 construct: endogenous in cells; host or cells: LS174T
T2 sequence (Q15910 whole entry): as the sequence (Q15910 whole entry) above
T2 sequence (O75530 whole entry partner): as the sequence (O75530 whole entry partner) above
T2 sequence (Q15022 whole entry partner): as the sequence (Q15022 whole entry partner) above
Method: After 72 hours of the treatment, the cells were collected and lysed using RIPA buffer (50 mM Tris, pH 7.5, 150 mM NaCl, 1% Triton X-100, 0.1% SDS, […], 0.5% deoxycholate, and protease inhibitor cocktail), followed by sonication (30 sec on/30 sec off, 5 cycles) to prepare a cell lysate.

[3] = EZH2 protein, LS174T cells, 1 μM, 72 hours
[4] = EZH2 protein, LS174T cells, 1 uM, 72 hours, Western blotting

Relative EZH2 degradation rate, 1 μM(%) Average [1] | Grade (percent value of the protein degradation when treated with 1 μM) [2, 3] | %, degradation at 1 uM [2, 4] | effect of degrading EZH2 protein when treated to colorectal cancer cells (in words) ([2]; LS174T cells) | Structure (SMILES) | EZH2 proteolytic ability compared to comparative compounds 1, 2 and 3 (in words) [1] | EZH2 proteolytic effect by Western blotting (figure, in words) ([2]; FIGS. 1 to 5) | %, degradation at 1 uM [2] | EZH2 proteolytic effect by Western blotting (figure, in words) [2] | Grade (percent value of the protein degradation when treated with 1 μM) [2]
50.7% | A (>75%) | 95.65% | excellent effects | CCN(c1cc(-c2ccc(CN3CCN(CC(=O)N4CCC5(CCN(CCNc6cccc7c6C(=O)N(C6CCC(=O)NC6=O)C7=O)CC5)CC4)CC3)cc2)cc(C(=O)NCc2c(C)cc(C)[nH]c2=O)c1C)C1CCOCC1 (centres unmarked) [Example 30, N-((4,6-dimethyl-2-oxo-1,2-dihydropyridine-3-yl)methyl)-4′-((4-(2-(9-(2-((2-(2,6-dioxopiperidine-3-yl)-1,3-dioxoisoindoline-4-yl)amino)ethyl)-3,9-diazaspiro[5.5]undecane-3-yl)-2-oxoethyl)piperazine-1-yl)methyl)-5-(ethyl(tetrahydro-2H-pyran-4-yl)amino)-4-methyl-[1,1′-biphenyl]-3-carboxamide] | significantly better EZH2 proteolytic ability | confirming the EZH2 proteolytic effect | – | – | –
62.9% | A (>75%) | 92.73% | excellent effects | CCN(c1cc(-c2ccc(CN3CCN(CC(=O)NCCCCCOCCCOCC(=O)N[C@H](C(=O)N4C[C@H](O)C[C@H]4C(=O)NCc4ccc(-c5scnc5C)cc4)C(C)(C)C)CC3)cc2)cc(C(=O)NCc2c(C)cc(C)[nH]c2=O)c1C)C1CCOCC1 [Example 37, (2S,4R)-1-((S)-2-(tert-butyl)-18-(4-((3′-(((4,6-dimethyl-2-oxo-1,2-dihydropyridine-3-yl)methyl)carbamoyl)-5′-(ethyl(tetrahydro-2H-pyran-4-yl)amino)-4′-methyl-[1,1′-biphenyl]-4-yl)methyl)piperazine-1-yl)-4,17-dioxo-6,10-dioxa-3,16-diazaoctadecanoyl)-4-hydroxy-N-(4-(4-methylthiazole-5-yl)benzyl)pyrrolidine-2-carboxamide] | significantly better EZH2 proteolytic ability | – | – | – | –
– | D (<25%) | 0% | – | CCN(c1cc(-c2ccc(CN3CCN(C(=O)c4cn(CCC(=O)N[C@H](C(=O)N5C[C@H](O)C[C@H]5C(=O)NCc5ccc(-c6scnc6C)cc5)C(C)(C)C)nn4)CC3)cc2)cc(C(=O)NCc2c(C)cc(C)[nH]c2=O)c1C)C1CCOCC1 [Example 47, (2S,4R)-1-((S)-2-(3-(4-(4-((3′-(((4,6-dimethyl-2-oxo-1,2-dihydropyridine-3-yl)methyl)carbamoyl)-5′-(ethyl(tetrahydro-2H-pyran-4-yl)amino)-4′-methyl-[1,1′-biphenyl]-4-yl)methyl)piperazine-1-carbonyl)-1H-1,2,3-triazole-1-yl)propanamido)-3,3-dimethylbutanoyl)-4-hydroxy-N-(4-(4-methylthiazole-5-yl)benzyl)pyrrolidine-2-carboxamide] | – | – | – | – | –
– | D (<25%) | 5.74% | excellent effects | CCN(c1cc(-c2ccc(CN3CCN(C(=O)c4cn(CCCCC(=O)N[C@H](C(=O)N5C[C@H](O)C[C@H]5C(=O)NCc5ccc(-c6scnc6C)cc5)C(C)(C)C)nn4)CC3)cc2)cc(C(=O)NCc2c(C)cc(C)[nH]c2=O)c1C)C1CCOCC1 [Example 48, (2S,4R)-1-((S)-2-(5-(4-(4-((3′-(((4,6-dimethyl-2-oxo-1,2-dihydropyridine-3-yl)methyl)carbamoyl)-5′-(ethyl(tetrahydro-2H-pyran-4-yl)amino)-4′-methyl-[1,1′-biphenyl]-4-yl)methyl)piperazine-1-carbonyl)-1H-1,2,3-triazole-1-yl)pentanamido)-3,3-dimethylbutanoyl)-4-hydroxy-N-(4-(4-methylthiazole-5-yl)benzyl)pyrrolidine-2-carboxamide] | – | – | – | – | –
27.8% | – | – | – | CCN(c1cc(-c2ccc(OCC(=O)NCCCCCCNc3cccc4c3C(=O)N(C3CCC(=O)NC3=O)C4=O)cc2)cc(C(=O)NCc2c(C)cc(C)[nH]c2=O)c1C)C1CCOCC1 (centres unmarked) [compound 1, reference compound] | – | – | – | – | –
16.2% | – | – | – | CCN(c1cc(-c2ccc(N3CCN(CC(=O)NCCCCCCNc4cccc5c4C(=O)N(C4CCC(=O)NC4=O)C5=O)CC3)cc2)cc(C(=O)NCc2c(C)cc(C)[nH]c2=O)c1C)C1CCOCC1 (centres unmarked) [compound 2, reference compound] | – | – | – | – | –

Continued, compound first:

Structure (SMILES) | Relative EZH2 degradation rate, 1 μM(%) Average [1] | Grade (percent value of the protein degradation when treated with 1 μM) [2, 3] | %, degradation at 1 uM [2, 4] | effect of degrading EZH2 protein when treated to colorectal cancer cells (in words) ([2]; LS174T cells) | EZH2 proteolytic ability compared to comparative compounds 1, 2 and 3 (in words) [1] | EZH2 proteolytic effect by Western blotting (figure, in words) ([2]; FIGS. 1 to 5) | %, degradation at 1 uM [2] | EZH2 proteolytic effect by Western blotting (figure, in words) [2] | Grade (percent value of the protein degradation when treated with 1 μM) [2]
CCN(c1cc(-c2ccc(CN3CCN(CC(=O)NCCCCCCOCC(=O)N[C@H](C(=O)N4C[C@H](O)C[C@H]4C(=O)NCc4ccc(-c5scnc5C)cc4)C(C)(C)C)CC3)cc2)cc(C(=O)NCc2c(C)cc(C)[nH]c2=O)c1C)C1CCOCC1 [Example 46, (2S,4R)-1-((S)-2-(2-((6-(2-(4-((3′-(((4,6-dimethyl-2-oxo-1,2-dihydropyridine-3-yl)methyl)carbamoyl)-5′-(ethyl(tetrahydro-2H-pyran-4-yl)amino)-4′-methyl-[1,1′-biphenyl]-4-yl)methyl)piperazine-1-yl)acetamido)hexyl)oxy)acetamido)-3,3-dimethylbutanoyl)-4-hydroxy-N-(4-(4-methylthiazole-5-yl)benzyl)pyrrolidine-2-carboxamide] | 65.8% | – | – | – | significantly better EZH2 proteolytic ability | – | 83.76% | confirming the EZH2 proteolytic effect | A (key: A: >75%; B: 50-75%; C: 25-50%; D: <25%)
CCN(c1cc(-c2ccc(CN3CCN(CC(=O)NCCCCCCCCCOCC(=O)N[C@H](C(=O)N4C[C@H](O)C[C@H]4C(=O)NCc4ccc(-c5scnc5C)cc4)C(C)(C)C)CC3)cc2)cc(C(=O)NCc2c(C)cc(C)[nH]c2=O)c1C)C1CCOCC1 [Example 49, (2S,4R)-1-((S)-2-(2-((9-(2-(4-((3′-(((4,6-dimethyl-2-oxo-1,2-dihydropyridine-3-yl)methyl)carbamoyl)-5′-(ethyl(tetrahydro-2H-pyran-4-yl)amino)-4′-methyl-[1,1′-biphenyl]-4-yl)methyl)piperazine-1-yl)acetamido)nonyl)oxy)acetamido)-3,3-dimethylbutanoyl)-4-hydroxy-N-(4-(4-methylthiazole-5-yl)benzyl)pyrrolidine-2-carboxamide] | 77.8% | A (>75%) | 96.49% | excellent effects | significantly better EZH2 proteolytic ability | confirming the EZH2 proteolytic effect | – | – | –
CCN(c1cc(-c2ccc(CN3CCN(CC(=O)NCCCCCCNC(=O)[C@H](CC(C)C)NC(=O)[C@@H](O)[C@H](N)Cc4ccccc4)CC3)cc2)cc(C(=O)NCc2c(C)cc(C)[nH]c2=O)c1C)C1CCOCC1 [Example 50, 4′-((4-(2-((6-((S)-2-((2S,3R)-3-amino-2-hydroxy-4-phenylbutanamido)-4-methylpentanamido)hexyl)amino)-2-oxoethyl)piperazine-1-yl)methyl)-N-((4,6-dimethyl-2-oxo-1,2-dihydropyridine-3-yl)methyl)-5-(ethyl(tetrahydro-2H-pyran-4-yl)amino)-4-methyl-[1,1′-biphenyl]-3-carboxamide] | – | – | – | – | – | – | 0% | – | D (key: A: >75%; B: 50-75%; C: 25-50%; D: <25%)
CCN(c1cc(-c2ccc(CN3CCN(CCNC(=O)CCOCCNc4cccc5c4C(=O)N(C4CCC(=O)NC4=O)C5=O)CC3)cc2)cc(C(=O)NCc2c(C)cc(C)[nH]c2=O)c1C)C1CCOCC1 (centres unmarked) [compound 3, reference compound] | 19.2% | – | – | – | – | – | – | – | –
